Experimental data taken from US4251655A, “Substituted N-iminomethylpiperidines” (McNeilab, Inc., priority 1979, dated 1981).
Counter-ions that a name gives are not always drawn. Like-named read-outs stand apart in the source and are kept apart here.

Assays:
gastric acid secretion [1] = test: Inhibition of gastric acid secretion (Total Acid Output) in rats; antisecretory activity; assay type: in vivo, Female Sprague-Dawley rats; settings: for inhibition in vivo at 20 mg/kg: read-out: Percent Inhibition at 20 mg/kg id; for ED50: 1 h, read-out: ED50 (dose required to produce an average of 50% inhibition in Total Acid Output versus controls)
Experimental: The compounds of the invention are useful for inhibition of gastric acid secretion as measured by the following test. Female Sprague-Dawley rats are fasted twenty-four hours before testing and are given water ad libidum while being kept in individual cages. On the day of testing, the rats are weighed and are selected so that the rats in each test weigh within a range of ± 20 grams.
Surgery is carried out under light ether anesthesia. As soon as the rat is anesthetized its teeth are removed and a mid-line incision is made on the abdomen about 11/2 inches in length and the stomach and duodenum are exposed. If at this point the stomach is filled with food or fecal material, the rat is discarded. If the condition of the stomach is acceptable, a purse string stitch is placed on the fundic portion of the stomach with a suture, taking care not to pierce any blood vessels in the area. A small nick is then made into the stomach in the center of the purse string, and a cannula, consisting of a small vinyl tube with a flange on one end, is put into the stomach, and the purse string stitch is closed tightly around the flange. The test compound is administered either intraduodonally (i.d.) immediately after surgery or orally (p.o.) one hour prior to surgery at doses generally ranging from about 0.25 to about 160 mg/kg in a volume of 0.5 ml/100 grams rat. Control rats receive the test vehicle, 0.5% aqueous methyl cellulose.
After the surgery and (in the case of i.d. administration) after administration of the test compound, the abdominal wall and skin are closed simultaneously with three or four 18 mm wound clips and a collecting tube is placed on the cannula. Each rat is then placed in a box in which a longitudinal slit has been made to allow the cannula to hand freely and to allow the rat to move about unencumbered. After the rat has been allowed to stabilize for thirty minutes, the collection tube on the cannula is discarded and replaced with a clean tube to receive the gastric juice. Collections are made at one hour. At the end of the study, the cannula is removed and the rat is sacrificed.
The sample of gastric contents collected is drained into a centrifuge tube and centrifuged to pack down the sediment. The volume is read and a 1 ml aliquot of the supernatant is put into a beaker containing 10 ml distilled water and is titrated to pH7 using 0.01 N sodium hydroxide. Results are determined for Volume, Titratable Acid and Total Acid Output, where Volume equals total ml of gastric juice minus sediment; Titratable Acid (meg/1) equals amount of 0.01 N sodium hydroxide needed to titrate the acid to pH7; and Total Acid Output equals Titratable Acid times Volume. Results are reported as the ED50 dose (mg/kg required to produce an average of 50% inhibition in Total Acid Output versus controls in all the animals tested for a particular compound) and as percent inhibition.
Following the test procedure previously described, the following compounds were tested for their antisecretory activity. The ED50 values for p.o. administration and the percent inhibition for i.d. administration at 20 mg/kg are tabulated below (R1 '=H except where noted): […]

gastric acid secretion [2] = test: as above; assay type: in vivo, Female Sprague-Dawley rats; settings: rat; for ED50: ip, intraperitoneally (footnote ++), read-out: ED50 (compound administered intraperitoneally)
[3] = rat, po, one hour prior to surgery

Compound	inhibition in vivo at 20 mg/kg (gastric acid secretion [1]; rat, id, 20 mg/kg)	ED50 (gastric acid secretion [1]; [3])	also measured
N=CN1CCCC(C(c2ccccc2)c2ccccc2)C1 (stereo not shown)	68%		ED50 (gastric acid secretion [2]): 7 mg/kg
CCCCCCCCCCN=CN1CCC(C(c2ccccc2)c2ccccc2)CC1 [R1=diphenylmethyl; A=H; R2=H; R3=n-decyl]	79%	8.2 mg/kg	
C#CCN=CN1CCC(C(c2ccccc2)c2ccccc2)CC1	100%	6.07 mg/kg	
N=CN1CCC(Cc2ccccc2)CC1 [R1=benzyl; A=H; R2=H; R3=H]	98%	114 mg/kg	
CCC(=N)N1CCC(C(c2ccccc2)c2ccccc2)CC1 [R1=diphenylmethyl; A=H; R2=ethyl; R3=H]	75%	> 40 mg/kg	
CCCCCCCCN=CN1CCC(=C(c2ccccc2)c2ccccc2)CC1 [R1,A=benzhydrylidene; R2=H; R3=n-octyl]	68.2%	0.625 mg/kg	
N=CN1CCCCC1 [N-iminomethylpiperidine]	0%		inhibition of gastric acid secretion at doses four times or greater than those at which the subject compounds are active (gastric acid secretion [1]; doses four times or greater than active doses of subject compounds): does not inhibit gastric acid secretion; inhibition of gastric acid secretion at a dose of 100 mg/kg p.o. (gastric acid secretion [1]; rat, p.o., 100 mg/kg): no inhibition whatsoever; ED50 (mg/kg po): result in words (gastric acid secretion [1]; rat, po, at 80 (mg/kg)): Inactive; inhibition of gastric acid secretion at 80 mg/kg i.d. (gastric acid secretion [2]; i.d., 80 mg/kg): no inhibition whatsoever
CCCCCCCCN=CN1CCC(C(c2ccccc2)c2ccc(C)cc2)CC1 (stereo not shown)	73%		
Cl.N=CN1CCC(C(c2ccccc2)c2ccccc2)CC1.O [R1=diphenylmethyl; A=H; R2=H; R3=H, 4-Diphenylmethyl-1-iminomethylpiperidine hydrochloride hydrate]	100%	0.7 mg/kg	
CCCCCCCCCCCCN=CN1CCC(C(c2ccccc2)c2ccccc2)CC1.O=C(O)/C=C/C(=O)O [4-(Diphenylmethyl)-1-N-(n-dodecyliminomethyl)piperidine fumarate]	80%	53 mg/kg	
CCCCCCCCN=C(C)N1CCC(C(c2ccccc2)c2ccccc2)CC1.[O-][Cl+3]([O-])([O-])O [4-(Diphenylmethyl)-1-[1-(octylimino)ethyl]-piperidine Monoperchlorate]			ED50 (gastric acid secretion [1]; Rattus norvegicus, po): 14 mg/kg; inhibition in vivo at 20 mg/kg (gastric acid secretion [1]; Rattus norvegicus): 98%
CCCCCCCCN=CN1CCC(C(c2ccccc2)c2ccc(OC)cc2)CC1 (stereo not shown) [4-[(4-methoxyphenyl)phenylmethyl]-1-[(octylimino)methyl]piperidine]	62%	16.9 mg/kg	
CCCCCCCCN=CN1CCC(C2c3ccccc3-c3ccccc32)CC1 [R1=9-fluorenyl; A=H; R2=H; R3=n-octyl]	48%	15.9 mg/kg	
C(=NCc1ccccc1)N1CCC(C(c2ccccc2)c2ccccc2)CC1 [R1=diphenylmethyl; A=H; R2=H; R3=benzyl]	100%	3.3 mg/kg	
C=CCN=CN1CCC(C(c2ccccc2)c2ccccc2)CC1	100%	10.2 mg/kg	
N=CN1CCC(C(c2ccccc2)c2ccc(Cl)cc2)CC1 (stereo not shown)	100%	2.32 mg/kg	
CCCCCCN=CN1CCC(C(c2ccccc2)c2ccccc2)CC1 [R1=diphenylmethyl; A=H; R2=H; R3=n-hexyl]	96%	8.7 mg/kg	
COc1ccc(CN=CN2CCC(C(c3ccccc3)c3ccccc3)CC2)cc1	63%	< 40 mg/kg	

Compound	inhibition in vivo at 20 mg/kg (gastric acid secretion [1]; rat, id, 20 mg/kg)	ED50 (gastric acid secretion [1]; [3])	also measured
CC(C)N=CN1CCC(C(c2ccccc2)c2ccccc2)CC1	96%	9.8 mg/kg	
COc1ccc(C(c2ccccc2)C2CCN(C=N)CC2)cc1 (stereo not shown)	100%	12.1 mg/kg	
CC(=O)C1(c2ccccc2)CCN(C=N)CC1 [R1=phenyl; A=drawing 20; R2=H; R3=H]			inhibition in vivo at 20 mg/kg (gastric acid secretion [1]; Rattus norvegicus): 71%
CCCCCCCCN=CN1CCC(C(c2ccccc2)c2ccc(O)cc2)CC1 (stereo not shown) [4-[(4-hydroxyphenyl)phenylmethyl]-1-[(octylimino)methyl]piperidine]			ED50 (gastric acid secretion [2]): 2 mg/kg
Clc1ccc(CN=CN2CCC(C(c3ccccc3)c3ccccc3)CC2)cc1	94%	20.7 mg/kg	
N=CN1CCC(c2ccccc2)CC1 [R1=phenyl; A=H; R2=H; R3=H]	77%	~40 mg/kg	
CCCCCCCCC=CCCCCCCCCN=CN1CCC(C(c2ccccc2)c2ccccc2)CC1	78.9%	66 mg/kg	
CCCCN=CN1CCC(C(c2ccccc2)c2ccccc2)CC1 [R1=diphenylmethyl; A=H; R2=H; R3=n-butyl]	100%	8.6 mg/kg	
C(=NC12CC3CC(CC(C3)C1)C2)N1CCC(C(c2ccccc2)c2ccccc2)CC1	0%	37 mg/kg	% inhibition at 80 mg/kg i.d. (gastric acid secretion [2]; i.d., 80 mg/kg (footnote)): 52%
CCCCCCCCN=CN1CCC(C(O)(c2ccccc2)c2ccccc2)CC1			ED50 (gastric acid secretion [2]): 5 mg/kg
C(=NCCCCc1ccccc1)N1CCC(C(c2ccccc2)c2ccccc2)CC1 [R1=diphenylmethyl; A=H; R2=H; R3=drawing 19]	82%	8.1 mg/kg	
CCCCCCCN=CN1CCC(C(c2ccccc2)c2ccccc2)CC1	72%	11.6 mg/kg	
CCCCCCCCN=CN1CCC(C(c2ccccc2)c2ccccc2)CC1.O.O=C(O)/C=C/C(=O)O [R1=diphenylmethyl; A=H; R2=H; R3=n-octyl, 4-(Diphenylmethyl)-1-[(octylimino)methyl]piperidine Fumarate Hydrate]	64%	9.8 mg/kg	
CCCCCCCCCN=CN1CCC(C(c2ccccc2)c2ccccc2)CC1 [R1=diphenylmethyl; A=H; R2=H; R3=n-nonyl]	93%	19.6 mg/kg	
CCN=CN1CCC(C(c2ccccc2)c2ccccc2)CC1 [R1=diphenylmethyl; A=H; R2=H; R3=ethyl, 4-(Diphenylmethyl)-1-N-ethyliminomethyl-piperidine oxalate hemihydrate]	100%	4.3 mg/kg	
CCCCCCCCN=CN1CCCC(C(c2ccccc2)c2ccccc2)C1 (stereo not shown)	92.2%	18.3 mg/kg	
C(=NCCc1ccccc1)N1CCC(C(c2ccccc2)c2ccccc2)CC1	100%	3.7 mg/kg	
